Measurements from paper PMC4058769 (Organic & biomolecular chemistry, 2009).

Tests used:
Assay type in all cases: cell-based
[1] = system: MCF-7 cells (breast cancer); assay: in vitro cytotoxic assay, MCF-7
[2] = system: PC-3 cells (prostate cancer); assay: in vitro cytotoxic assay, PC-3
[3] = system: L-929 (mouse fibroblasts); assay: antiproliferative assay, L-929
[4] = system: HeLa (human cervix carcinoma); assay: cytotoxicity assay, HeLa
[5] = system: K-562 (human leukaemia); assay: antiproliferative assay, K-562

`CCC(=O)O[C@H]1[C@H](C)O[C@@H](O[C@H]2[C@H](N(C)C)[C@@H](O)[C@H](O[C@H]3[C@@H](CC=O)C[C@@H](C)[C@@H](O)/C=C/C=C/C[C@@H](C)OC(=O)C[C@@H](O)[C@@H]3OC)O[C@@H]2C)C[C@@]1(C)O` [compound 1, leucomycin A7] was tested, and the “cytotoxic activity in MCF-7 (in words)” value [1] was “not active at all”, the “cytotoxic activity in PC-3 (in words)” value [2] was “not active at all” and the “antiproliferative activity in L-929 (in words)” value [3] was “not active at all”. For the same molecule, the GI50 ([3]; read-out: L-929 GI50, antiproliferative activity, L-929 mouse fibroblasts) was over 66 µM, the “cytotoxic activity in HeLa (in words)” value [4] was “not active at all” and the CC50 ([4]; read-out: HeLa CC50, cytotoxicity, HeLa human cervix carcinoma) was over 66 µM. The “antiproliferative activity in K-562 (in words)” value [5] was “not active at all” and the GI50 ([5]; read-out: K-562 GI50, antiproliferative activity, K-562 human leukaemia) was over 66 µM.
